Reference: patent publication US4567198A, “Ethanethioates and mercaptoamides and use thereof as analgesic and enkephalinase inhibitory compounds” (Roussel Uclaf, priority 1983, dated 1986)

Molecular target: T1, Enkephalinase (Rattus norvegicus, UniProt P07861)
T1 construct: from tissue; host or cells: rat striatum, membrane fraction (20,000 g pellet)
T1 sequence (P07861 1-750): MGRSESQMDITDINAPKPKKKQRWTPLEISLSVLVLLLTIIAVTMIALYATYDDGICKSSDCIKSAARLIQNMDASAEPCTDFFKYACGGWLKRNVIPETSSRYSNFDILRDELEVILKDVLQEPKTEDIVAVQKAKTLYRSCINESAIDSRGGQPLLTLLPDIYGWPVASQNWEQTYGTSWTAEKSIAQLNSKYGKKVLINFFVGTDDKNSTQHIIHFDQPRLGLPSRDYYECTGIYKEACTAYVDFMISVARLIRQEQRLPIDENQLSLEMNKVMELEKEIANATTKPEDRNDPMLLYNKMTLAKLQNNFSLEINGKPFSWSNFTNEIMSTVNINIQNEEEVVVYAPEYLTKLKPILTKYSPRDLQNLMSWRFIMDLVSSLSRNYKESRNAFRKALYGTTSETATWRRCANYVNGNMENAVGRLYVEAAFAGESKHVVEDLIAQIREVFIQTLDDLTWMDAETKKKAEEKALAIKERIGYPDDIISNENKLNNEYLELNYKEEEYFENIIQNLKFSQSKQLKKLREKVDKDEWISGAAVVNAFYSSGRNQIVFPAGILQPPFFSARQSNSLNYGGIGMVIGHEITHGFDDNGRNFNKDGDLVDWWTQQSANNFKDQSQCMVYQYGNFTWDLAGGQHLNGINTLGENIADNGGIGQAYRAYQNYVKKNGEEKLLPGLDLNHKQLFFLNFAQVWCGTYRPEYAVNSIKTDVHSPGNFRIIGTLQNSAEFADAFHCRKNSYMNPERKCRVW
Assay: Inhibition of enkephalinase in rat striatum membrane fraction (hydrolysis of tritiated leucine-enkephaline)
Assay type: biochemical
Conditions: striatum membrane fraction of rats; 20 nanomoles tritiated leucine-enkephaline, 1 mM puromycin, 25° C., 15 minutes, Tris pH 7.4; read-out: Enkephalinase inhibition CI50
Method: Enkephalinase activity was determined in a striatum membrane fraction of rats. The straitum was placed in ice and was homogenized in buffered 0.05M Tris with a pH of 7.4 (20 times the volume) and after a first centrifugation at 1000 g, the particular fraction obtained was subjected to two centrifugations for 10 minutes at 20,000 g. The culot was then suspended in buffered Tris and kept at 4° C. The amount of proteins was determined by the Comassie blue method.
After preincubation at 25° C. for 15 minutes, an aliquot of proteins was incubated at 25° C. for 15 minutes in the presence of 20 nanomoles of tritiated leucine-enkephaline (against the first amino acid) previously purified, of 1 mM of puromycin and the test product in buffered Tris. The hydrolysis reaction was stopped by addition of 0.2N hydrochloric acid and the icubate was subjected to a deproteinization by heating at 95° C. for 15 minutes. Under these conditions, the kinetic reaction was linear. The tritiated metabolites obtained by hydrolysis were separated from enkephaline by chromatography over a column of porapak Q and elution with buffered Tris whereby enkephaline was retained in the column and was released in the following ethanolic phase. The activity of the different products was expressed in 50% inhibiting concentration called CI50 in Table I.

Compound | IC50 [µM]
CC(=O)SCC(=O)Nc1nccs1 [Ethanethioate of S-[2-(2-thiazolylamino)-2-oxo-ethyl]] | 130
CC(=O)SCC(=O)Nc1ccc(Cl)cc1 [Ethanethioate of S-[2-(4-chlorophenylamino)-2-oxo-ethyl]] | 6
O=C(CS)Nc1nccs1 [N--(2-thiazolyl)-2-mercapto-acetamide, N-(2-thiazolyl)-2-mercapto-acetamide] | 30
O=C(CS)Nc1ccc(Cl)cc1 [N--(4-chlorophenyl)-2-mercapto-acetamide, N-(4-chlorophenyl)-2-mercapto-acetamide] | 5

Other lines, results leading:

IC50 [µM] | Compound
3 | O=C(CS)Nc1ccccc1 [N--phenyl-2-mercapto-acetamide, N-phenyl-2-mercapto-acetamide]
40 | O=C(CCS)Nc1ccccc1 [N--phenyl-3-mercapto-propanamide, N-phenyl-3-mercapto-propanamide]
